SMILES strings stand for the structures. Some results are limits rather than exact numbers.

Drawing on patent publication US6458788B1, “4-hydroxycinnoline-3-carboxyamides as antiviral agents” (Pharmacia & Upjohn Company, priority 2000, dated 2002), this text covers inhibition and melting point for five molecules.

One data set has as its target VZV polymerase (Varicella-zoster virus, UniProt P09252). The data set can be described thus: VZV polymerase assay (Table 1, viral polymerase inhibition). It is filed as biochemical. As to conditions: at a concentration of 20 μM; read-out: percent inhibition of the viral polymerase, VZV. The procedure:
The HCMV polymerase assay is performed using a scintillation proximity assay (SPA) as described in several references, such as N. D. Cook, et al., Pharmaceutical Manufacturing International, pages 49-53 (1992); K. Takeuchi, Laboratory Practice, September issue (1992); U.S. Pat. No. 4,568,649 (1986); which are incorporated by reference herein. Reactions are performed in 96-well plates. The assay is conducted in 100 μl volume with 5.4 mM HEPES (pH 7.5), 11.7 mM KCl, 4.5 mM MgCl2, 0.36 mg/ml BSA, and 90 nM ^3H-dTTP. Assays are run with and without CHAPS, (3-[(3-cholamidopropyl)-dimethylammonio]-1-propane-sulfonate) at a final concentration of 2 mM. HCMV polymerase is diluted in enzyme dilution buffer containing 50% glycerol, 250 mM NaCl, 10 mM HEPES (pH 7.5), 100 μg/ml BSA, and 0.01% sodium azide. […] Plates are incubated 10 min. at 37° C., then equilibrated to room temperature, and counted on a Packard Topcount. Linear regressions are performed and IC50's are calculated using computer software.
A modified version of the above HCMV polymerase assay is performed as described above, but with the following changes: Compounds are diluted in 100% DMSO until final dilution into assay buffer. […] In Table 1, the term “nd” refers to activity data not determined.

A further data set has as its target T1, HCMV polymerase (Human cytomegalovirus, UniProt P08546).
T1 construct: made in house; host or cells: recombinant baculovirus-infected SF-9 cells
The data set can be described thus: HCMV polymerase scintillation proximity assay (modified version). The format is biochemical. As to conditions: at a concentration of 20 μM; read-out: percent inhibition of the viral polymerase, HCMV. The protocol: The HCMV polymerase assay is performed using a scintillation proximity assay (SPA) as described in several references, such as N. D. Cook, et al., Pharmaceutical Manufacturing International, pages 49-53 (1992); K. Takeuchi, Laboratory Practice, September issue (1992); U.S. Pat. No. 4,568,649 (1986); which are incorporated by reference herein. Reactions are performed in 96-well plates. The assay is conducted in 100 μl volume with 5.4 mM HEPES (pH 7.5), 11.7 mM KCl, 4.5 mM MgCl2, 0.36 mg/ml BSA, and 90 nM ^3H-dTTP. Assays are run with and without CHAPS, (3-[(3-cholamidopropyl)-dimethylammonio]-1-propane-sulfonate) at a final concentration of 2 mM. HCMV polymerase is diluted in enzyme dilution buffer containing 50% glycerol, 250 mM NaCl, 10 mM HEPES (pH 7.5), 100 μg/ml BSA, and 0.01% sodium azide. The HCMV polymerase, which is expressed in recombinant baculovirus-infected SF-9 cells and purified according to literature procedures, is added at 10% (or 10 μl) of the final reaction volume, i.e., 100 μl. Compounds are diluted in 50% DMSO and 10 μl are added to each well. Control wells contain an equivalent concentration of DMSO. Unless noted otherwise, reactions are initiated via the addition of 6 nM biotinylated poly(dA)-oligo(dT) template/primer to reaction mixtures containing the enzyme, substrate, and compounds of interest. Plates are incubated in a 25° C. or 37° C. H2O bath and terminated via the addition of 40 μl/reaction of 0.5 M EDTA (pH 8) per well. Reactions are terminated within the time-frame during which substrate incorporation is linear and varied depending upon the enzyme and conditions used, i.e., 30 min. for HCMV polymerase. Ten μl of streptavidin-SPA beads (20 mg/ml in PBS/10% glycerol) are added following termination of the reaction. Plates are incubated 10 min. at 37° C., then equilibrated to room temperature, and counted on a Packard Topcount. Linear regressions are performed and IC50's are calculated using computer software.
A modified version of the above HCMV polymerase assay is performed as described above, but with the following changes: Compounds are diluted in 100% DMSO until final dilution into assay buffer. In the previous assay, compounds are diluted in 50% DMSO. 4.5 mM dithiotherotol (DTT) is added to the polymerase buffer. […] All results are listed as the percent inhibition of the viral polymerase at a concentration of 20 μM. In Table 1, the term “nd” refers to activity data not determined.
For orientation: In a scintillation proximity assay essentially only radioactivity close to the scintillant gives light.

A further data set has as its target HSV polymerase (Human herpesvirus 1, UniProt P04293). The data set can be described thus: HSV polymerase assay (Table 1, viral polymerase inhibition). It is filed as biochemical. The following applies: at a concentration of 20 μM; read-out: percent inhibition of the viral polymerase, HSV.

T1 sequence (P08546 whole entry): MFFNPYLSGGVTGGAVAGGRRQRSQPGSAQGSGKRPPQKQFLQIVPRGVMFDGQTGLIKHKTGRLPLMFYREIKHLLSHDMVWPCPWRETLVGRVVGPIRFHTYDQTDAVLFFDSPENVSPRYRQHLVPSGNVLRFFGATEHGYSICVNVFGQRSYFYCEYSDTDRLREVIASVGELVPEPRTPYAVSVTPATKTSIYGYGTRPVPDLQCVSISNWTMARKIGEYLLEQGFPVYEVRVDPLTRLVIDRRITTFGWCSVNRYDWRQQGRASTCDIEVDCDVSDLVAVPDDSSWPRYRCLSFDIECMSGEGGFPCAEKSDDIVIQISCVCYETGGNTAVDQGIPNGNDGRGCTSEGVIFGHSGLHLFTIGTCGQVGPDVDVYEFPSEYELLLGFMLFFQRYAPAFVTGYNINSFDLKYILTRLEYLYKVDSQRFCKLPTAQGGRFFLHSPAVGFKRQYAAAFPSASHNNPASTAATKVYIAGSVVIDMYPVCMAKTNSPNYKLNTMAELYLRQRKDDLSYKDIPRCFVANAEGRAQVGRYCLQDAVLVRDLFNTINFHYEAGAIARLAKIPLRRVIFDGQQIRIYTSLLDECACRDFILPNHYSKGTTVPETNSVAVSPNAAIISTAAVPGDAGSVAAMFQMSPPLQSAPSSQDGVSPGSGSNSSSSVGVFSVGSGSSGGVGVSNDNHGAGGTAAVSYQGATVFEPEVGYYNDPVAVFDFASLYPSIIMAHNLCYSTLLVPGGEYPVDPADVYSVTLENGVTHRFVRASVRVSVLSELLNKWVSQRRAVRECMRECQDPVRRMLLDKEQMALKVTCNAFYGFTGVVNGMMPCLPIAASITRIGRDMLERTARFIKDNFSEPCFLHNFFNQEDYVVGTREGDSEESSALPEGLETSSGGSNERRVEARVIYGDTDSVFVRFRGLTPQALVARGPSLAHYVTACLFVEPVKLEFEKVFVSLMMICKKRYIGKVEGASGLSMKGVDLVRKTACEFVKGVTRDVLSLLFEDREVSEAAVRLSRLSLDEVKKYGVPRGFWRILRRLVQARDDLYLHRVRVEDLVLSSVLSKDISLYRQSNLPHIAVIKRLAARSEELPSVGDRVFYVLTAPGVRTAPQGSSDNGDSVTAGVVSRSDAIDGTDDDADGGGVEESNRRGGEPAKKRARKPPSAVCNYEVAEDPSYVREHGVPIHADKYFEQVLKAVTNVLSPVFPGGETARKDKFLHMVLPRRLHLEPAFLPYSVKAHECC
HSV polymerase, sequence (P04293 whole entry): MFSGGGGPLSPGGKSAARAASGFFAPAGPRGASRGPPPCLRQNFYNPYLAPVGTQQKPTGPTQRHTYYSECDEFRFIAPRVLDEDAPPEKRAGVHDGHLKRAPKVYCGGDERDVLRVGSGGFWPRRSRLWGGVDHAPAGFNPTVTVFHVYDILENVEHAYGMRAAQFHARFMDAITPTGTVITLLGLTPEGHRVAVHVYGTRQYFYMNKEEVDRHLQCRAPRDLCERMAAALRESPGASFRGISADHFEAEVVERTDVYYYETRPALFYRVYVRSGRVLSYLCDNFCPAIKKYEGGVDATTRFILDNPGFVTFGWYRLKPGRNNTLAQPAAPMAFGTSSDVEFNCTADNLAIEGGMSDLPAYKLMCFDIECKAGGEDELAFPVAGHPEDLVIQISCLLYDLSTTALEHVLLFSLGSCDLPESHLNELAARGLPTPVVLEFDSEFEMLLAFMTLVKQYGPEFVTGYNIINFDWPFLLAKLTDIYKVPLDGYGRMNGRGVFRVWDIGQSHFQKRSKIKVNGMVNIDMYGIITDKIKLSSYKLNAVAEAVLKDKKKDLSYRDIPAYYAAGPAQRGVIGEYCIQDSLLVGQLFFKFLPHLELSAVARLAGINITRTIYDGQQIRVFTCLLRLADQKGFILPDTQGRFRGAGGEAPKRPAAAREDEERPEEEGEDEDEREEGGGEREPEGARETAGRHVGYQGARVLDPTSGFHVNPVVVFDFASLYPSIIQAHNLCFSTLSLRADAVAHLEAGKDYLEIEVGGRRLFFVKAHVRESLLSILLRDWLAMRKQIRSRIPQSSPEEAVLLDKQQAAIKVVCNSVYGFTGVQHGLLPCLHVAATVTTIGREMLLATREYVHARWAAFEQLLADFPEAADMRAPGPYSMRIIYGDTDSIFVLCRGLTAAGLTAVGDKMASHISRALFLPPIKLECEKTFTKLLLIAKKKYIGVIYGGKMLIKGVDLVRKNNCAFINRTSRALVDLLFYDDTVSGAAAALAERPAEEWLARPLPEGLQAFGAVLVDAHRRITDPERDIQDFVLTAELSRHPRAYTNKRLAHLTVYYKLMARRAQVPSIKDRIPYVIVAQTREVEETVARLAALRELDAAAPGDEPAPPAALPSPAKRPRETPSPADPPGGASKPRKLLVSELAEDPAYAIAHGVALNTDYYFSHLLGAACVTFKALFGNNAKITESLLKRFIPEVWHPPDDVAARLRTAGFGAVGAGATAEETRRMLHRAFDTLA
VZV polymerase, sequence (P09252 whole entry): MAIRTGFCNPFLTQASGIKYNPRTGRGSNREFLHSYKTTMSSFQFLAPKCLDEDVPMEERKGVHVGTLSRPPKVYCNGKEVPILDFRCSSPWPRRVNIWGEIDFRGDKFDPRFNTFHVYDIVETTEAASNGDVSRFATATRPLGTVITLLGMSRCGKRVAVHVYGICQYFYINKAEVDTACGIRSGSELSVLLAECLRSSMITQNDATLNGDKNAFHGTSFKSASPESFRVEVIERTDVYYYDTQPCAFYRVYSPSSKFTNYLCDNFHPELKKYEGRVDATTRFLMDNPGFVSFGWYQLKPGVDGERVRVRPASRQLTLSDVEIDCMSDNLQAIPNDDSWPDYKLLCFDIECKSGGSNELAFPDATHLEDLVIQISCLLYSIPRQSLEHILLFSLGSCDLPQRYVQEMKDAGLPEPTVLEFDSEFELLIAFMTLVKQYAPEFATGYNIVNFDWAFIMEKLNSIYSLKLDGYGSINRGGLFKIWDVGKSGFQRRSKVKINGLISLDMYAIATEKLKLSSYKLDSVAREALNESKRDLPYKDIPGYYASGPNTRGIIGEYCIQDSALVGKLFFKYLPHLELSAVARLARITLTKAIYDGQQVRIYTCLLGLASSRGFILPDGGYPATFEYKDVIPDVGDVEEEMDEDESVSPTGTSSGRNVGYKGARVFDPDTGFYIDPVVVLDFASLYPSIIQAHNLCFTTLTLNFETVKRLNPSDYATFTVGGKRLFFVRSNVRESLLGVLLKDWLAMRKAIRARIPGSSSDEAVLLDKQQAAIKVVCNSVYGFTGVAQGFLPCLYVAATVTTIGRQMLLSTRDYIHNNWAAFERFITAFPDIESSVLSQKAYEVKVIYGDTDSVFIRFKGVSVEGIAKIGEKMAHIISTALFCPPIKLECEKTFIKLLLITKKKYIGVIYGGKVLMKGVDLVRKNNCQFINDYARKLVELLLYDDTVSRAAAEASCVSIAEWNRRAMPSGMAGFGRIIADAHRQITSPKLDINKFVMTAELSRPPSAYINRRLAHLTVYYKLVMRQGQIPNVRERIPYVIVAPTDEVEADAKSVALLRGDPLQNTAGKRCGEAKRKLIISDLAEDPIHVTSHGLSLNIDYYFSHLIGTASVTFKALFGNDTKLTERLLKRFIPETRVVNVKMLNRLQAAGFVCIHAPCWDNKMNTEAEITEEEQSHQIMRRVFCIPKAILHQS

As a reminder, the inhibition is the drop in the measured response relative to a control, in per cent. In general, melting point refers to the temperature, or range, at which the solid turns liquid. For the molecule `O=C(NCc1ccc(Cl)cc1)c1n[nH]c2ccccc2c1=O` [Comp. 1, N-(4-chlorobenzyl)-4-oxo-1,4-dihydro-3-cinnolinecarboxamide], the melting point fell in the range of 269 to 271 °C. At VZV polymerase, the inhibition at 20 µM is 10.1%. Moreover, the inhibition at 20 µM at HCMV polymerase amounted to 90%. Moreover, the inhibition at 20 µM at HSV polymerase amounted to 20.8%.

The molecule `O=C(NCc1ccc(Cl)cc1)c1nnc2ccc(I)cc2c1O` [Comp. 2, N-(4-chlorobenzyl)-4-hydroxy-6-iodo-3-cinnolinecarboxamide] returned a melting point of 307 to 308 °C. The inhibition at 20 µM on HCMV polymerase was over 100%.

Molecule `COC(=O)c1ccc2nnc(C(=O)NCc3ccc(Cl)cc3)c(O)c2c1` [Example 3, Methyl 3-{[(4-chlorobenzyl)amino]carbonyl]-4-hydroxy-6-cinnolinecarboxylate] registered a melting point of 308 to 310 °C. In addition, the inhibition at 20 µM on HCMV polymerase amounted to 50%.

Regarding `O=C(NCc1ccc(Cl)cc1)c1nnc2ccc(CO)cc2c1O` [Example 4, N-(4-chlorobenzyl)-4-hydroxy-6-(hydroxymethyl)-3-cinnolinecarboxamide], the melting point fell in the range of 296 to 298 °C. Moreover, the inhibition at 20 µM at HCMV polymerase stood at 51%.

On to `O=C(NCc1ccc(Cl)cc1)c1nnc2ccc(CN3CCOCC3)cc2c1O` [Example 5, N-(4-chlorobenzyl)-4-hydroxy-6-(morpholinylmethyl)-3-cinnolinecarboxylate], for which the melting point is 277 to 280 °C (dec.).
